Test results as given in US11014934B2, “Antiseptic drug” (AO “TATKHIMFARMPREPARATY”, priority 2017, dated 2021).

How the values were obtained:
Format in all cases: cell-based
[1] = system: Staphylococcus aureus ATCC 209p; test: Disinfectant activity in suspension test
Description: To prepare a bacterial suspension of the culture, microorganisms grown in dense nutrient medium for (18-24) hours were washed off with a sterile isotonic sodium chloride solution. The bacterial suspension of each microorganism was brought to a turbidity corresponding to a concentration of 1×10^9 cells/ml, which corresponds to 3 units of McFarland. For experiments with protein loading, a solution of bovine serum albumin (BSA) was added to the bacterial suspension to a final concentration of 0.2%.
Solutions of compound I, miramistin, and benzalkonium chloride were poured at a working concentration (0.1%, 0.2%) into a 24-well plate of 0.9 ml per well: 0.1 ml of microbial suspension was added to wells with disinfectant solutions and mixed by shaking for several seconds.
At the end of 1, 5, and 15 minutes of exposure, 0.5 ml of a universal neutralizer was added and mixed by shaking to deactivate the drugs and stop their antimicrobial activity. The neutralizer consisted of tween-80 (Sigma-Aldrich)—3.0 ml, saponin (DIAEM)—3.0 g, histidine—0.1 g, cysteine—0.1 g in 100 ml of phosphate-buffered solution.
The liquid was inoculated on a dense nutrient medium (Müller-Hinton agar) in 0.1 ml of the mixture, cultivation was carried out (24-48) hours at 37° C. Müller-Hinton broth was prepared from dry media (Mueller Hinton broth, Acumedia, Baltimore), cultivation was carried out on agarized Müller-Hinton broth, which included an additional 2% of agar. The media were autoclaved at 121° C. for 15 minutes.
After the time required for the cultivation of microorganisms, the results were counted according to the number of colonies grown on the Petri dish. In the absence of growth, the time for culturing microorganisms was increased by a factor of 2 (for example, when the cultivation time was 24 hours, it was left in the thermostat for up to 2 days). The experiment was carried out three times under the same conditions.
The criterion of efficacy of drugs in suspension is the death of 100% test microorganisms, with a duration of action not more than 30 minutes.

[2] = system: Staphylococcus aureus ATCC 209p; test: Disinfectant activity in contaminated metal surface test; settings: for Inhibition rate (Mean ± SD) of Staphylococcus aureus ATCC 209p growth: 0.1% solution; for Inhibition rate (M ± SD) Staphylococcus aureus ATCC 209p: 0.2% solution; for time after application to effective inhibition of bacterial growth (99.99%): 0.1% solutions
Description: (§1) The preparation of the bacterial suspension was carried out similarly to the procedure for determining the disinfecting activity of compound I in suspension (see example 7). To simulate protein contamination of the metal surface, a BSA solution was added to the bacterial suspension to a final concentration of 0.4%. The surface of the metal table was drawn into squares, the number of which depended on the number of strains studied. The test surface should be clean, intact, sterile. To do this, the table was cleaned with alcohol, and then with sterile water. A microbial suspension in a volume of 0.125 ml was applied to a surface area of 5×5 cm and distributed with a sterile spatula over the entire square area. After the microbial suspension was dried, a 0.5 ml solution of compound I (miramistin and benzalkonium chloride being a control) was uniformly applied to the surface at a working concentration of 0.1 and 0.2% and distributed over the square surface with a sterile spatula, and then kept for 1, 5, and 15 minutes.
(§2) After the end of exposure, the contaminated surface was thoroughly wiped with a sterile gauze cloth (size 5×5 cm) soaked in 1 ml of a neutralizer solution and the cloth was immersed in 10 ml of sterile physiological saline in a flask, which was shaken for 10 minutes.
(§3) Plating was carried out as in example 7, in addition to the controls were carried out: • control of the sterility of the surface (before applying the microbial suspension, a metal table was washed off with a sterile swab, followed by plating on a nutrient medium); • control of the vitality of the microorganism (after applying microbial suspension on the metal table, it was washed off with a sterile swab with subsequent plating on the nutrient medium).
(§4) The contamination density of 1 cm^2 of the surface and the percentage of disinfection were calculated, taking the number of colonies removed from control surfaces as 100%. The criterion for the effectiveness of surface disinfection is not less than 99.99% of the death of test microorganisms, the disinfection time is not more than 120 minutes.

[3] = system: Escherichia coli CDC F-50; test: as above; settings: for time after application to effective inhibition of bacterial growth: Escherichia coli CDC F-50, 0.1% solutions
Description: as §1, §2, §3, §4

[4] = 0.1% solution, exposure 1 min, +BSA
[5] = 0.1% solution, exposure 1 min, −BSA
[6] = 0.1% solution, exposure 5 min, +BSA
[7] = 0.1% solution, exposure 5 min, −BSA
[8] = 0.1% solution, exposure 15 min, +BSA
[9] = 0.1% solution, exposure 15 min, −BSA
[10] = 0.2% solution, exposure 1 min, +BSA
[11] = 0.2% solution, exposure 1 min, −BSA
[12] = 0.2% solution, exposure 5 min, +BSA
[13] = 0.2% solution, exposure 5 min, −BSA
[14] = 0.2% solution, exposure 15 min, +BSA
[15] = 0.2% solution, exposure 15 min, −BSA
[16] = Staphylococcus aureus ATCC 209p

alkyldimethyl(phenylmethyl) ammonium chloride [Benzalconium chloride]
99.99 ± 0.005%: Inhibition rate (M ± SD) Staphylococcus aureus ATCC 209p [1, 8] | Inhibition rate (M ± SD) Staphylococcus aureus ATCC 209p [1, 9] | Inhibition rate (Mean ± SD) of Staphylococcus aureus ATCC 209p growth ([2]; exposure 1 min, +BSA) | Inhibition rate (Mean ± SD) of Staphylococcus aureus ATCC 209p growth ([2]; exposure 15 min, −BSA) | Inhibition rate (M ± SD) Staphylococcus aureus ATCC 209p ([2]; exposure 15 min, +BSA) | Inhibition rate (M ± SD) of Escherichia coli CDC F-50 growth [3, 8] | Inhibition rate (M ± SD) of Escherichia coli CDC F-50 growth [3, 11] | Inhibition rate (M ± SD) of Escherichia coli CDC F-50 growth [3, 12]
99.99%: Inhibition rate (M ± SD) Staphylococcus aureus ATCC 209p [1, 4] | Inhibition rate (M ± SD) Staphylococcus aureus ATCC 209p [1, 5] | Inhibition rate (M ± SD) Staphylococcus aureus ATCC 209p [1, 6] | Inhibition rate (M ± SD) Staphylococcus aureus ATCC 209p [1, 7] | Inhibition rate (Mean ± SD) of Staphylococcus aureus ATCC 209p growth ([2]; exposure 1 min, −BSA) | Inhibition rate (Mean ± SD) of Staphylococcus aureus ATCC 209p growth ([2]; exposure 5 min, +BSA) | Inhibition rate (Mean ± SD) of Staphylococcus aureus ATCC 209p growth ([2]; exposure 5 min, −BSA) | Inhibition rate (Mean ± SD) of Staphylococcus aureus ATCC 209p growth ([2]; exposure 15 min, +BSA) | Inhibition rate (M ± SD) Staphylococcus aureus ATCC 209p ([2]; exposure 1 min, +BSA) | Inhibition rate (M ± SD) Staphylococcus aureus ATCC 209p ([2]; exposure 1 min, −BSA) | Inhibition rate (M ± SD) Staphylococcus aureus ATCC 209p ([2]; exposure 5 min, +BSA) | Inhibition rate (M ± SD) Staphylococcus aureus ATCC 209p ([2]; exposure 5 min, −BSA)
99.98 ± 0.005%: Inhibition rate (M ± SD) of Escherichia coli CDC F-50 growth [3, 7]
15 min: time after application to effective inhibition of bacterial growth [3]
1 min: time to effective inhibition of bacterial growth ([3]; Escherichia coli CDC F-50, concentration 0.2%, test without protein load)
5 min: time after application to effective inhibition of bacterial growth (99.99%) [2, 16]
100%: Inhibition rate (M ± SD) Staphylococcus aureus ATCC 209p [1, 10] | Inhibition rate (M ± SD) Staphylococcus aureus ATCC 209p [1, 11] | Inhibition rate (M ± SD) Staphylococcus aureus ATCC 209p [1, 12] | Inhibition rate (M ± SD) Staphylococcus aureus ATCC 209p [1, 13] | Inhibition rate (M ± SD) Staphylococcus aureus ATCC 209p [1, 14] | Inhibition rate (M ± SD) Staphylococcus aureus ATCC 209p [1, 15] | Inhibition rate (M ± SD) Staphylococcus aureus ATCC 209p ([2]; exposure 15 min, −BSA) | Inhibition rate (M ± SD) of Escherichia coli CDC F-50 growth [3, 13] | Inhibition rate (M ± SD) of Escherichia coli CDC F-50 growth [3, 15]
99.96 ± 0.005%: Inhibition rate (M ± SD) of Escherichia coli CDC F-50 growth [3, 5]
99.97 ± 0.00%: Inhibition rate (M ± SD) of Escherichia coli CDC F-50 growth [3, 10]
99.97 ± 0.005%: Inhibition rate (M ± SD) of Escherichia coli CDC F-50 growth [3, 4] | Inhibition rate (M ± SD) of Escherichia coli CDC F-50 growth [3, 6]
100 ± 0.00%: Inhibition rate (M ± SD) of Escherichia coli CDC F-50 growth [3, 9] | Inhibition rate (M ± SD) of Escherichia coli CDC F-50 growth [3, 14]

CCCCCCCCCCCC[N+](C)(C)Cc1cnc(C[N+](C)(C)CCCCCCCCCCCC)c2c1COC(CC)O2 (stereo not shown) [Compound I, 5,8-(Bis(methylene (N, N-dimethyl-N-dodecylammonium))-2-ethyl-4H-[1,3]dioxino [4,5-c]pyridiniumdichloride]
5 min: time after application to effective inhibition of bacterial growth (99.99%) [2, 16]
99.96 ± 0.005%: Inhibition rate (M ± SD) of Escherichia coli CDC F-50 growth [3, 6]
99.99 ± 0.00%: Inhibition rate (M ± SD) of Escherichia coli CDC F-50 growth [3, 9]
99.97 ± 0.005%: Inhibition rate (M ± SD) of Escherichia coli CDC F-50 growth [3, 7]
100 ± 0.005%: Inhibition rate (M ± SD) of Escherichia coli CDC F-50 growth [3, 14]
100%: Inhibition rate (M ± SD) Staphylococcus aureus ATCC 209p [1, 11] | Inhibition rate (M ± SD) Staphylococcus aureus ATCC 209p [1, 13] | Inhibition rate (M ± SD) Staphylococcus aureus ATCC 209p [1, 14] | Inhibition rate (M ± SD) Staphylococcus aureus ATCC 209p [1, 15] | Inhibition rate (M ± SD) of Escherichia coli CDC F-50 growth [3, 15]
99.92 ± 0.005%: Inhibition rate (M ± SD) of Escherichia coli CDC F-50 growth [3, 4] | Inhibition rate (M ± SD) of Escherichia coli CDC F-50 growth [3, 5]
99.94 ± 0.00%: Inhibition rate (M ± SD) of Escherichia coli CDC F-50 growth [3, 10]
99.98 ± 0.00%: Inhibition rate (Mean ± SD) of Staphylococcus aureus ATCC 209p growth ([2]; exposure 1 min, +BSA)
1 min: time to effective inhibition of bacterial growth ([2]; Staphylococcus aureus ATCC 209p, concentration 0.2%)
99.99 ± 0.005%: Inhibition rate (M ± SD) Staphylococcus aureus ATCC 209p [1, 8] | Inhibition rate (M ± SD) Staphylococcus aureus ATCC 209p [1, 9] | Inhibition rate (M ± SD) Staphylococcus aureus ATCC 209p [1, 10] | Inhibition rate (M ± SD) Staphylococcus aureus ATCC 209p [1, 12] | Inhibition rate (M ± SD) of Escherichia coli CDC F-50 growth [3, 8] | Inhibition rate (M ± SD) of Escherichia coli CDC F-50 growth [3, 12] | Inhibition rate (M ± SD) of Escherichia coli CDC F-50 growth [3, 13]
15 min: time after application to effective inhibition of bacterial growth [3]
99.99%: death of Staphylococcus aureus ATCC 209p ([1]; 0.1% solution) | Inhibition rate (M ± SD) Staphylococcus aureus ATCC 209p [1, 4] | Inhibition rate (M ± SD) Staphylococcus aureus ATCC 209p [1, 5] | Inhibition rate (M ± SD) Staphylococcus aureus ATCC 209p [1, 6] | Inhibition rate (M ± SD) Staphylococcus aureus ATCC 209p [1, 7] | Inhibition rate (Mean ± SD) of Staphylococcus aureus ATCC 209p growth ([2]; exposure 1 min, −BSA) | Inhibition rate (Mean ± SD) of Staphylococcus aureus ATCC 209p growth ([2]; exposure 5 min, +BSA) | Inhibition rate (Mean ± SD) of Staphylococcus aureus ATCC 209p growth ([2]; exposure 5 min, −BSA) | Inhibition rate (Mean ± SD) of Staphylococcus aureus ATCC 209p growth ([2]; exposure 15 min, +BSA) | Inhibition rate (Mean ± SD) of Staphylococcus aureus ATCC 209p growth ([2]; exposure 15 min, −BSA) | Inhibition rate (M ± SD) Staphylococcus aureus ATCC 209p ([2]; exposure 1 min, +BSA) | Inhibition rate (M ± SD) Staphylococcus aureus ATCC 209p ([2]; exposure 1 min, −BSA) | Inhibition rate (M ± SD) Staphylococcus aureus ATCC 209p ([2]; exposure 5 min, +BSA) | Inhibition rate (M ± SD) Staphylococcus aureus ATCC 209p ([2]; exposure 5 min, −BSA) | Inhibition rate (M ± SD) Staphylococcus aureus ATCC 209p ([2]; exposure 15 min, +BSA) | Inhibition rate (M ± SD) Staphylococcus aureus ATCC 209p ([2]; exposure 15 min, −BSA)
99.98 ± 0.005%: Inhibition rate (M ± SD) of Escherichia coli CDC F-50 growth [3, 11]
